Assay results reported in patent US12479847B2 (DANA-FARBER CANCER INSTITUTE, INC., priority 2019, dated 2025).

Columns and labels:
Experiment in all cases: KINOMEscan (ScanMAX) kinase profiling
Assay type in all cases: binding
[1] = target: T1, panel of 468 kinases (Homo sapiens, UniProt P31751); details: AKT2; 1 μM; read-out: % control
T1 construct: purchased KINOMEscan (ScanMAX) service

[2] = target: T2, panel of 468 kinases (Homo sapiens, UniProt Q13233); details: MAP3K1; 1 μM; read-out: % control
T2 construct: purchased KINOMEscan (ScanMAX) service

[3] = target: T3, panel of 468 kinases (Homo sapiens, UniProt P10721, V559D/V654A); details: KIT(V559D,V654A); 1 μM; read-out: % control
T3 construct: purchased KINOMEscan (ScanMAX) service

[4] = target: T4, panel of 468 kinases (Homo sapiens, UniProt Q9Y5S2); details: MRCKB; 1 μM; read-out: % control
T4 construct: purchased KINOMEscan (ScanMAX) service

[5] = target: T5, panel of 468 kinases (Homo sapiens, UniProt Q9Y6E0); details: MST3; 1 μM; read-out: % control
T5 construct: purchased KINOMEscan (ScanMAX) service

[6] = target: T6, panel of 468 kinases (Homo sapiens, UniProt Q9UKE5); details: TNIK; 1 μM; read-out: % control
T6 construct: purchased KINOMEscan (ScanMAX) service

[7] = target: T7, panel of 468 kinases (Homo sapiens, UniProt P08069); details: IGF1R; 1 μM; read-out: % control
T7 construct: purchased KINOMEscan (ScanMAX) service

[8] = target: T8, panel of 468 kinases (Homo sapiens, UniProt Q13976); details: PRKG1; 1 μM; read-out: % control
T8 construct: purchased KINOMEscan (ScanMAX) service
T8 sequence (Q13976 1-671): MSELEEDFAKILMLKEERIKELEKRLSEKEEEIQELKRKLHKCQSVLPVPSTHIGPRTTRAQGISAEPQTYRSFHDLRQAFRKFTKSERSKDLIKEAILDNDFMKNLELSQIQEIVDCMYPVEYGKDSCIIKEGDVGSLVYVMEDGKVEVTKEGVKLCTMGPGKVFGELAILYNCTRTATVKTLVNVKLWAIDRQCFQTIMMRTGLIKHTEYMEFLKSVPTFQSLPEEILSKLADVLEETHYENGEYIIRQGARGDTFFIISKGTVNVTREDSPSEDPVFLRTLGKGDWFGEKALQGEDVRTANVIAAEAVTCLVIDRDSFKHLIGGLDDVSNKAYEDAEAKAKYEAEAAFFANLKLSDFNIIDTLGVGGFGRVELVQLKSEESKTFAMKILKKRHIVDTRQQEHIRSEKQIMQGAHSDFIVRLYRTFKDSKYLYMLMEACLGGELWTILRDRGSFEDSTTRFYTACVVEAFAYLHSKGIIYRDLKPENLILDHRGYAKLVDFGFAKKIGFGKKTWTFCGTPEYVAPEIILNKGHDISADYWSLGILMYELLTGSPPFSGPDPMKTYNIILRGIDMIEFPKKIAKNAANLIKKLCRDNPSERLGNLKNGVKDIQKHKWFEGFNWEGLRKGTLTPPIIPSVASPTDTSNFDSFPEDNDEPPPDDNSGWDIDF

[9] = target: T9, panel of 468 kinases (Homo sapiens, UniProt Q9UF33); details: EPHA6; 1 μM; read-out: % control
T9 construct: purchased KINOMEscan (ScanMAX) service
T9 sequence (Q9UF33 23-1036): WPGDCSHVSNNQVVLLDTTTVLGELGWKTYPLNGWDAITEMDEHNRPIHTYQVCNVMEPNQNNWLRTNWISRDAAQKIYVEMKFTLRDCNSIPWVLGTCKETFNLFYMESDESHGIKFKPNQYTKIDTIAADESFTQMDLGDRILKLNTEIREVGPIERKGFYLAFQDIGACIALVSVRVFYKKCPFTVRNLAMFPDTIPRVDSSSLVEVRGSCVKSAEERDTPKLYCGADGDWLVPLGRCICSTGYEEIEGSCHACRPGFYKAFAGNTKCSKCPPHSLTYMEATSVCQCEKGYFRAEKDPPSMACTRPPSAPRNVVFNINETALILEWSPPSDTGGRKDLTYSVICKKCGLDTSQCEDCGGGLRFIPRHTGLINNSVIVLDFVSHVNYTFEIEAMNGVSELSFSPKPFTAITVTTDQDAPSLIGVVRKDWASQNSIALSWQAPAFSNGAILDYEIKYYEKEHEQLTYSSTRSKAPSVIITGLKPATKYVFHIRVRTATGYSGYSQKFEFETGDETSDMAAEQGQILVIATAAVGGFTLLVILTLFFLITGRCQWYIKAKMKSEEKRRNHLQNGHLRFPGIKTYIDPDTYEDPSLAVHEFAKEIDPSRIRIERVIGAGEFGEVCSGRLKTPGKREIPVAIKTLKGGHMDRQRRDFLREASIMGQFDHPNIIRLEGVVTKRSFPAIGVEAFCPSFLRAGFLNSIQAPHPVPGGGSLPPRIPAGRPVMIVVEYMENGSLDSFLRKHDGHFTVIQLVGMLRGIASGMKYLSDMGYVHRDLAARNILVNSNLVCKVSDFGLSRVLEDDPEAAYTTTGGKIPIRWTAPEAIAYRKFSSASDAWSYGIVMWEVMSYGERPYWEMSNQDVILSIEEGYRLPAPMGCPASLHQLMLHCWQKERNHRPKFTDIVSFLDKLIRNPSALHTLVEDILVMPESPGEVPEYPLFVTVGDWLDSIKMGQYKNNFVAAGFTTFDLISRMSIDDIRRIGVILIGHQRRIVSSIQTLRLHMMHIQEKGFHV

T6 sequence (Q9UKE5 whole entry): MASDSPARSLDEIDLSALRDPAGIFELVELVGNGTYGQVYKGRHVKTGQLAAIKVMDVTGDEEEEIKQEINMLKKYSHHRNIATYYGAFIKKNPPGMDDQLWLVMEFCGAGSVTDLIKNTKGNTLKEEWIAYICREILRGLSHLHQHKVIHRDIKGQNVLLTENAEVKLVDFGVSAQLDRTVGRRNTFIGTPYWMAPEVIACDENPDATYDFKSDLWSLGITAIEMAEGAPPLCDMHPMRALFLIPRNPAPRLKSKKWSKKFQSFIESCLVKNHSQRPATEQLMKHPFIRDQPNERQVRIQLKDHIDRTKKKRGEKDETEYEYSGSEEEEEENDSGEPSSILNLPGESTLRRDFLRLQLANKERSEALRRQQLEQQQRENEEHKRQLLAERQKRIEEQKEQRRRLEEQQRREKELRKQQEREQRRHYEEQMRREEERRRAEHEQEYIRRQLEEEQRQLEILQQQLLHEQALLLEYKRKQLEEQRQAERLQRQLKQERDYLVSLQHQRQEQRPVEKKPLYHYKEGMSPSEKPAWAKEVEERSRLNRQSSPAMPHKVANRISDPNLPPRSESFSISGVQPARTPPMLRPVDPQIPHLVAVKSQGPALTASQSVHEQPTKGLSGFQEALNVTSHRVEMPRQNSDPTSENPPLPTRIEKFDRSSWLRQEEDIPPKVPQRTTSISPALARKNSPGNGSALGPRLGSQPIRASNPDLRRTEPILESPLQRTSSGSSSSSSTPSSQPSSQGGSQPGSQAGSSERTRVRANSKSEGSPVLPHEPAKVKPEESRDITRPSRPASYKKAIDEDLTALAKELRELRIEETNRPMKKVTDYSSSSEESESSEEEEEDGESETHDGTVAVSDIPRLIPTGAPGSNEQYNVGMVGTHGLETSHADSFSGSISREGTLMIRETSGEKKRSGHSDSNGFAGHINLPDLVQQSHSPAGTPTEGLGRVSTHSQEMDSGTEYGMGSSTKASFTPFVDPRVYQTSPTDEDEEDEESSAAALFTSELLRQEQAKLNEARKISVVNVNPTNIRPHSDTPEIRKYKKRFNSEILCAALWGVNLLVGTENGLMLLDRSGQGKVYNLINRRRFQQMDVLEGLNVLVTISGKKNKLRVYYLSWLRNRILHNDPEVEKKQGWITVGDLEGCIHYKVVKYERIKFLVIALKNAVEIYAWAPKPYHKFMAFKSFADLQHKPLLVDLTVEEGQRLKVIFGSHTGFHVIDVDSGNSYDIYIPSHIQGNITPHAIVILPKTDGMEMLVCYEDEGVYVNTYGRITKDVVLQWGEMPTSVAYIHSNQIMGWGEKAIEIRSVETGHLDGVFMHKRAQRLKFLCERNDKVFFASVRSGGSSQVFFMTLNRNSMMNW
T5 sequence (Q9Y6E0 whole entry): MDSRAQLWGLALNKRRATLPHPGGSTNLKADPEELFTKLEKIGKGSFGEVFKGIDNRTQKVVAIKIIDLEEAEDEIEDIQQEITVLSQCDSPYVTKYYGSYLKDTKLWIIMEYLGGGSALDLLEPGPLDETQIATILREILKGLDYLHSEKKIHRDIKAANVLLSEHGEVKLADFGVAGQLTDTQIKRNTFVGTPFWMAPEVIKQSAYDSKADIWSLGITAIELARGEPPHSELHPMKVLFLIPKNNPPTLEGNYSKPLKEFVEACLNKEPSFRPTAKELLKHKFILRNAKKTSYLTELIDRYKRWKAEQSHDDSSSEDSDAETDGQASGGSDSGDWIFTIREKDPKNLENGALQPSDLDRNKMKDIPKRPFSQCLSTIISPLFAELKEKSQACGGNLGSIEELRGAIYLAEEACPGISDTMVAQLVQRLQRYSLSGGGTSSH
T1 sequence (P31751 whole entry): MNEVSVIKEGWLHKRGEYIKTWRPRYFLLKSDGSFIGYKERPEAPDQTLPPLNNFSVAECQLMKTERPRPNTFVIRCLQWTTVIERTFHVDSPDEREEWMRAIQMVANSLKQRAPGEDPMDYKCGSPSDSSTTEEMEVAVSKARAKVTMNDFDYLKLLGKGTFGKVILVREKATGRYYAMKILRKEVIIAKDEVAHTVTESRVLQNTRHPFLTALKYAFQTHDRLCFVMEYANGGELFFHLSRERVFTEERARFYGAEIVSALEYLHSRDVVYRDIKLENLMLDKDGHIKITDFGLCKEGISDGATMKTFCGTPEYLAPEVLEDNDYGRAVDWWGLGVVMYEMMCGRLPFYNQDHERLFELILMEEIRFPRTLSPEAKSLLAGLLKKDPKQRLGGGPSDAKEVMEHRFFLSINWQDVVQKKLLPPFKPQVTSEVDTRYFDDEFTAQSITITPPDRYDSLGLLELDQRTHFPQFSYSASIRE
T7 sequence (P08069 31-1367): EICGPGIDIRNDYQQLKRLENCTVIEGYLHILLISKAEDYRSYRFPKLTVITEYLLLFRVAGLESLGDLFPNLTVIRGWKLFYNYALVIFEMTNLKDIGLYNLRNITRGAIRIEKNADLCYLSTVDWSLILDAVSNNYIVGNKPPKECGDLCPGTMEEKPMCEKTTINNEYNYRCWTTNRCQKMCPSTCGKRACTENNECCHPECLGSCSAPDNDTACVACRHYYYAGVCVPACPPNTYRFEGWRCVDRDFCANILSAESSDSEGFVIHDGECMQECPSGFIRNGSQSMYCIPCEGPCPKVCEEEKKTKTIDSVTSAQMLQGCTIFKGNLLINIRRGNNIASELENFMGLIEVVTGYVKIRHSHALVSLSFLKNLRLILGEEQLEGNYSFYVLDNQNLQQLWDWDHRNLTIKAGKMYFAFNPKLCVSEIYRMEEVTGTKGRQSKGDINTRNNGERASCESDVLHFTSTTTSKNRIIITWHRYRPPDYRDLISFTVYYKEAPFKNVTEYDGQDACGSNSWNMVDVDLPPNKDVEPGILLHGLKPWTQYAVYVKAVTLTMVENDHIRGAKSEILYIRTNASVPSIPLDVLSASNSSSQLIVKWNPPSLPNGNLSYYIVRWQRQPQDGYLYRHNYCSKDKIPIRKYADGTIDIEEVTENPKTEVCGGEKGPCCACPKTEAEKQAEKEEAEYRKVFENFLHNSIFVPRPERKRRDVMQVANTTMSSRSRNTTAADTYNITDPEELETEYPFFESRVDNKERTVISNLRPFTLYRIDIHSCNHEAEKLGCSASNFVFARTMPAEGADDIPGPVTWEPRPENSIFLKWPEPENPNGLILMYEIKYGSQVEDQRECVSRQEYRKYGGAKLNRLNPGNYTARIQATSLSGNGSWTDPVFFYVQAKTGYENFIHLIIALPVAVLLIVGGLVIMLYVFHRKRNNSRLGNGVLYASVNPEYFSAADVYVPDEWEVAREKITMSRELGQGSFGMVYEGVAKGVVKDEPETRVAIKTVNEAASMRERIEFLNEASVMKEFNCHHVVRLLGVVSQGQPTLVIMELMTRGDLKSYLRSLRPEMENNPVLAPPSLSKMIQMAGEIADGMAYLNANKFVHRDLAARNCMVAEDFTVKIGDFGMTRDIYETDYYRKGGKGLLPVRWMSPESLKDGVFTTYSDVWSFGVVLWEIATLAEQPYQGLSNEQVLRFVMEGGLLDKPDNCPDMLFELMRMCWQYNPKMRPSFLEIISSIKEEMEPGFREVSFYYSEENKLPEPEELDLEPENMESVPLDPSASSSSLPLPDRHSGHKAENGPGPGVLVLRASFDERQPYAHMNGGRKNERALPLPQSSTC
T3 sequence (P10721 26-976 V559D/V654A): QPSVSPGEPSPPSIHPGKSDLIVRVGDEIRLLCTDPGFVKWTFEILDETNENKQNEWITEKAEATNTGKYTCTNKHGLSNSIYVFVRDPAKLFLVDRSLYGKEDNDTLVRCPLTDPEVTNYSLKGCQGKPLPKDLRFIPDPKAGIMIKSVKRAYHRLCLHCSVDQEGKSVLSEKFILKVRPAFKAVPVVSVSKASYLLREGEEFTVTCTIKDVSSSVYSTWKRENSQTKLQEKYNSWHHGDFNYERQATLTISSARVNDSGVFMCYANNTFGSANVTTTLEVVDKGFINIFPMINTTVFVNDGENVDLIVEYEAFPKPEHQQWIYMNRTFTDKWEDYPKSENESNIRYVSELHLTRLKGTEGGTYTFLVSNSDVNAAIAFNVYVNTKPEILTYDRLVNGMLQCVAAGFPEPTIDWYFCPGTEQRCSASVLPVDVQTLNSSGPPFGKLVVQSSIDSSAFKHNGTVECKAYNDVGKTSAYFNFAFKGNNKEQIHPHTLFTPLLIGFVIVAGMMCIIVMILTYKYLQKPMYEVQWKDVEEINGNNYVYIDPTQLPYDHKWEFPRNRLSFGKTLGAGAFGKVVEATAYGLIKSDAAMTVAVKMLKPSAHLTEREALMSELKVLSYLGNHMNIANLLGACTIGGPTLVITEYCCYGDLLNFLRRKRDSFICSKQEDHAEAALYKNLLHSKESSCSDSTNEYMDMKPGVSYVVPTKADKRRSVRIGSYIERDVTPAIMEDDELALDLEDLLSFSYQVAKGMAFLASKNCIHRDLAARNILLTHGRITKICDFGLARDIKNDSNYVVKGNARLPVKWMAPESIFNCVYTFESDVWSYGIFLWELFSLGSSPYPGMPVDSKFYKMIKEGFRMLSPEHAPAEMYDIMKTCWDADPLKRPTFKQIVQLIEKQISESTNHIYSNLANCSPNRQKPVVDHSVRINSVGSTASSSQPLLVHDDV

Compound	remaining binding at 1 µM [1] [%]	remaining binding at 1 µM [2] [%]	remaining binding at 1 µM [3] [%]	remaining binding at 1 µM [4] [%]	remaining binding at 1 µM [5] [%]	remaining binding at 1 µM [6] [%]	remaining binding at 1 µM [7] [%]	remaining binding at 1 µM [8] [%]	remaining binding at 1 µM [9] [%]
CNc1nc(Nc2ccc(C(=O)N3CCC(N4CCOCC4)CC3)c3c2OCO3)nc2[nH]cc(Cl)c12 [Compound 75, (7-((5-chloro-4-(methylamino)-7H-pyrrolo[2,3-d]pyrimidin-2-yl)amino)benzo[d][1,3]dioxol-4-yl)(4-morpholinopiperidin-1-yl)methanone]	100	82	94	100	98	39	89	100	100
CNc1nc(Nc2ccc(S(=O)(=O)N3CCC(N4CCOCC4)CC3)cc2OC)nc2[nH]cc(Cl)c12 [Compound 12, 5-chloro-N2-(2-methoxy-4-((4-morpholinopiperidin-1-yl)sulfonyl)phenyl)-N4-methyl-7H-pyrrolo[2,3-d]pyrimidine-2,4-diamine]	100	79	100	100	97	92	100	100	100
CNc1nc(Nc2ccc(P3(=O)CCN(C4CCOCC4)CC3)cc2OC)nc2[nH]cc(Cl)c12 [Compound 77, 4-(4-((5-chloro-4-(methylamino)-7H-pyrrolo[2,3-d]pyrimidin-2-yl)amino)-3-methoxyphenyl)-1-(tetrahydro-2H-pyran-4-yl)-1,4-azaphosphinane 4-oxide]	100	73	96	100	88	72	100	100	100
